Type in all cases: functional, organism-based
Assay [1] is filed under the species Homo sapiens. The assay is described as follows: Inhibitory concentration for anti-platelet aggregation induced by thrombin at 0.1 U/mL concentration.
The species entered for assay [2] is Homo sapiens. The assay is described as follows: Inhibitory concentration for anti-platelet aggregation induced by collagen at 10 ug/mL concentration.
For assay [3], the species on record is Homo sapiens. The assay is described as follows: Inhibitory concentration against superoxide anion (O2-) generation in human neutrophils induced by FMLP (formyl-Met-Leu-Phe) and […](phorbol myristate acetate).
The species named for assay [4] is Homo sapiens. In words: Inhibitory concentration for anti-platelet aggregation induced by arachidonic acid at 100 uM concentration.
The species named for assay [5] is Homo sapiens. The assay is described as follows: Inhibitory concentration for anti-platelet aggregation induced by platelet activating factor at 2 ng/mL concentration.
For assay [6], the species on record is Homo sapiens. The assay is described as follows: Inhibitory concentration against neutrophil elastase release induced by FMLP (formyl-Met-Leu-Phe).

Molecules are shown by their SMILES.

The term IC50 denotes the midpoint of a concentration-inhibition curve. A higher IC50 goes with lower potency. As for `COc1cccc2c(=O)oc(-c3ccc(Br)cc3)nc12`, the IC50 is more than 100 µM in assay [1]; more than 100 µM in assay [2]; more than 40 µM in assay [3]; more than 100 µM in assay [4]; more than 100 µM in assay [5].
Regarding `COc1cccc2c(=O)oc(-c3ccccc3F)nc12`, the IC50 was 7.2 µM in assay [1]; 39.4 µM in assay [2]; 9.74 µM in assay [3]; 8 µM in assay [4]; more than 100 µM in assay [5].
Take `COc1cccc2c(=O)oc(-c3ccccc3Cl)nc12`: the IC50 in assay [1] was 6.9 µM; in assay [2] it was 35.5 µM; in assay [3], 14.7 µM; in assay [4] it was 11.8 µM; in assay [5], more than 100 µM.
For `COc1ccccc1-c1nc2c(OC)cccc2c(=O)o1`, the IC50 in assay [1] is more than 100 µM; in assay [6], 1.59 µM; in assay [2], more than 100 µM; in assay [3], 14 µM; in assay [4], more than 100 µM; in assay [5], more than 100 µM.
Regarding `COc1ccccc1-c1nc2c(C)cccc2c(=O)o1`, the IC50 is more than 100 µM in assay [1]; 7.23 µM in assay [6]; 54.7 µM in assay [2]; 22.7 µM in assay [3]; 36.6 µM in assay [4]; more than 100 µM in assay [5].
With `Cc1cccc2c(=O)oc(-c3ccccc3F)nc12`, the IC50 in assay [1] was 34.3 µM; in assay [6], more than 40 µM; in assay [2], 11.9 µM; in assay [3] it was 10.8 µM; in assay [4], 6.8 µM; in assay [5], more than 100 µM.
Turning to `O=c1oc(-c2ccccc2Cl)nc2c(Cl)cccc12`, the IC50 in assay [1] was determined as 6.6 µM; in assay [6], 1.89 µM; in assay [2], 30 µM; in assay [3], 8.66 µM; in assay [4] it was 6.1 µM; in assay [5] it was 69.5 µM.
With `O=c1oc(-c2ccccc2F)nc2c(Cl)cccc12`, the concentration for half-maximal inhibition (IC50) was 14.7 µM in assay [1]; 6.03 µM in assay [6]; 49.1 µM in assay [2]; more than 40 µM in assay [3]; 12.7 µM in assay [4]; 87.4 µM in assay [5].
With `COc1ccccc1-c1nc2c(Cl)cccc2c(=O)o1`, the IC50 was 14.8 µM in assay [1]; 1.91 µM in assay [6]; 44.9 µM in assay [2]; 10 µM in assay [3]; 25.4 µM in assay [4]; 70.3 µM in assay [5].
With `Cc1cccc2c(=O)oc(-c3ccccc3Cl)nc12`, the IC50 in assay [1] is 11.9 µM; in assay [6] it was more than 40 µM; in assay [2], 12.6 µM; in assay [3], 29.9 µM; in assay [4] it was 4.3 µM; in assay [5], more than 100 µM.
As for `O=c1oc(-c2ccccc2Br)nc2c(Cl)cccc12`, the IC50 in assay [1] amounted to 7.1 µM; in assay [6] it was 1.69 µM; in assay [2], 47 µM; in assay [3], 6.56 µM; in assay [4], 10.2 µM; in assay [5], 87.5 µM.
Take `COc1cccc2c(=O)oc(-c3ccccc3C)nc12`: the IC50 is 67 µM in assay [1]; 10.6 µM in assay [6]; 34.3 µM in assay [2]; 11.4 µM in assay [3]; 8.4 µM in assay [4]; more than 100 µM in assay [5].
As to `Cc1ccccc1-c1nc2c(C)cccc2c(=O)o1`, the IC50 in assay [1] was more than 100 µM; in assay [6], more than 40 µM; in assay [2] it was more than 100 µM; in assay [3] it was 23.6 µM; in assay [4] it was 19.3 µM; in assay [5], more than 100 µM.
On to `Cc1cccc2c(=O)oc(-c3ccccc3Br)nc12`, for which the IC50 is 18.9 µM in assay [1]; more than 40 µM in assay [6]; 49.8 µM in assay [2]; 30.2 µM in assay [3]; 5.8 µM in assay [4]; 89.3 µM in assay [5].
With `CCc1nc2c(OC)cccc2c(=O)o1`, the IC50 was more than 40 µM in assay [1]; 100 µM in assay [6]; more than 100 µM in assay [2]; 100 µM in assay [3]; more than 100 µM in assay [4]; more than 40 µM in assay [5].
Turning to `COc1cccc2c(=O)oc(C)nc12`, the IC50 in assay [1] was more than 100 µM; in assay [6] it was more than 40 µM; in assay [2], more than 100 µM; in assay [3] it was more than 40 µM; in assay [4] it was more than 100 µM; in assay [5], more than 100 µM.
Take `Cc1ccccc1-c1nc2c(Cl)cccc2c(=O)o1`: the IC50 in assay [1] is 36.3 µM; in assay [6], more than 40 µM; in assay [2] it was 63.3 µM; in assay [3], 17.5 µM; in assay [4] it was 13.8 µM; in assay [5], 91.9 µM.
On to `COc1cccc2c(=O)oc(-c3ccccc3Br)nc12`, for which the concentration for half-maximal inhibition (IC50) is 4.4 µM in assay [1]; 21.1 µM in assay [2]; 16.7 µM in assay [3]; 13 µM in assay [4]; more than 100 µM in assay [5].
Take `COc1cccc2c(=O)oc(-c3ccc(Cl)cc3)nc12`: the IC50 was more than 100 µM in assay [1]; more than 100 µM in assay [2]; more than 40 µM in assay [3]; more than 100 µM in assay [4]; more than 100 µM in assay [5].
Consider `COc1cccc2c(=O)oc(-c3ccccc3)nc12`, for which the IC50 in assay [1] was 48.2 µM; in assay [6] it was more than 40 µM; in assay [2], 33.8 µM; in assay [3] it was more than 40 µM; in assay [4] it was 47.3 µM; in assay [5] it was more than 100 µM.
As for `CCCCc1nc2c(OC)cccc2c(=O)o1`, the IC50 in assay [1] is more than 100 µM; in assay [6], more than 40 µM; in assay [2], more than 100 µM; in assay [3] it was more than 40 µM; in assay [4] it was more than 100 µM; in assay [5], more than 100 µM.
With `CC(=O)Oc1ccccc1C(=O)O` [ASPIRIN], the IC50 in assay [1] is more than 100 µM; in assay [2] it was 34.9 µM; in assay [4], 34.6 µM; in assay [5], more than 100 µM.
Regarding `c1ccc2c(c1)[I+]c1ccccc1-2` [DIPHENYLENEIODONIUM], it took 0.46 µM to reach half-maximal inhibition in assay [3] (IC50).

Values taken from ChEMBL document CHEMBL1145274, “The evaluation of 2,8-disubstituted benzoxazinone derivatives as anti-inflammatory and anti-platelet aggregation agents” (Bioorg Med Chem Lett, 2005).
